Data taken from US20040067932A1 (priority 2002, published 2004).
≈ marks a conversion by molar mass, not a printed value. Like-named read-outs stand apart in the source and are kept apart here.

Tests used:
rA1 adenosine receptor = molecular target: T1, rA1 adenosine receptor (Rattus norvegicus, UniProt P25099); test: Binding affinity at rA1 adenosine receptor
T1 sequence (P25099 1-326): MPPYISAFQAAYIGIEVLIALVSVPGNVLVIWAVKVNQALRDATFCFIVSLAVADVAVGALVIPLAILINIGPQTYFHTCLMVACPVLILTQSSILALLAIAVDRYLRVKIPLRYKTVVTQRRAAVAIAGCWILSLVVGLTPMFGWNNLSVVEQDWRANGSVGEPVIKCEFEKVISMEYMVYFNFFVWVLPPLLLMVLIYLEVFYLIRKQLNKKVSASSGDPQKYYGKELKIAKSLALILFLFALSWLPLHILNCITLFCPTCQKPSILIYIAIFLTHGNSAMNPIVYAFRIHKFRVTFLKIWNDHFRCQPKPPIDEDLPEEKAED

rA2A adenosine receptor = rA2A adenosine receptor (Rattus norvegicus, UniProt P30543); test: Binding affinity at rA2A adenosine receptor
Chain of rA2A adenosine receptor (P30543 whole entry): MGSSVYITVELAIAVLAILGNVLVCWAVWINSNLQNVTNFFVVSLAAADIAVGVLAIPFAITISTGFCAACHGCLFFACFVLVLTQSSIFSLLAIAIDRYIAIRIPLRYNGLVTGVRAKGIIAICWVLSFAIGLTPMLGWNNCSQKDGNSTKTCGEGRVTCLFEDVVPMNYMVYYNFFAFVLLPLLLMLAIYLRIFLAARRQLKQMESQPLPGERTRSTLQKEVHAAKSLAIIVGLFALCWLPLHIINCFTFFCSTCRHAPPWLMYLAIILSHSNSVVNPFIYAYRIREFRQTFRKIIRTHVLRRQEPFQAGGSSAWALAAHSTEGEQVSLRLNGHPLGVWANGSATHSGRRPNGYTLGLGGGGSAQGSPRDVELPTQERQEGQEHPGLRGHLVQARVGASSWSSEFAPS

[1] = tested on: human melanoma A375 cell line; test: MTT growth inhibitory assay, A375; format: cell-based
Description: (§1) One of the growth inhibitory assays is the MTT assay. Cells (1000-1500 cells/well) are seeded in a 96-well micro culture plate in a total volume of 100 μl/well. After overnight incubation in a humidified incubator at 37° C. with 5% CO2-95% air, chemotherapeutic drug solutions diluted with culture medium at various concentrations are added in the amount of 100 μl to each well. The plates are placed in a humidified incubator at 37° C. with 5% CO2-95% air for 7-10 days. The plates are then centrifuged briefly and 100 μl of the growth medium is removed. Cell cultures are incubated with 50 μl of MTT [3-(4,5-dimethylthiazol-2-yl)-2,5-diphenyl-tetrazolium bromide] reagent (1 mg/ml in Dulbecco's phosphate-buffered saline) for 4 hr at 37° C. The resultant purple formazan precipitate is solubilized with 200 μl of 0.04 N HCl in isopropanol. Absorbance is measured at a wavelength of 595 nm and at a reference wavelength of 655 nm using a Bio-Rad Model 3550 Microplate Reader. Preferably, all tests are run in duplicate for each dose level.
(§2) The EZED50 computer program estimates the concentration of agent that inhibits cell growth by 50% as compared to the control cells. This is termed the IC50 and is determined by curve fitting test data using the following four logistic equation. [formula]
(§3) Inhibitory assay testing is also used to determine enhanced therapeutic effects from combining A3 receptor antagonists with other tumor inhibiting agents. The inhibitory cell growth assays are run with and without selected concentrations of A3 receptor antagonists. An enhanced therapeutic effect is present when the IC50 of the tumor inhibiting agent is lower with the A3 receptor antagonist.
(§4) Quantitatively, the enhancement factor (EF) is calculated by dividing the IC50 value of the tumor inhibiting agent for a tumor cell line by the IC50 value of the agent with A3 receptor antagonist for the same cell line: [formula]

[2] = tested on: human colon carcinoma HT29 cell line; test: MTT growth inhibitory assay, HT29; format: cell-based
Description: as §1, §2, §3, §4

[3] = tested on: human pancreatic cancer Panc-1; test: MTT growth inhibitory assay, Panc-1; format: cell-based
Description: as §1, §2, §3, §4

[4] = tested on: human lung carcinoma SKMES; test: MTT growth inhibitory assay, SKMES; format: cell-based
Description: as §1, §2, §3, §4

A375 cells = test: Flow cytometry (PI) G2/M accumulation and sub-G1 apoptosis, A375; format: cell-based, human; details: A375, vindesine 1 nM, G2/M accumulation dose response curve, read-out: SEC50 (dose inducing 50% of the enhancing activity to vindesine)
Description: A375 and NCTC2544 adherent cells were trypsinized, mixed with floating cells, washed with PBS and permeabilised in 70% (vol/vol) ethanol/PBS solution at 4° C. for at least 24 hours. Jurkat, HeL023 and PBMC cells were centrifuged for 10 minutes at 1000×g. The cell pellet was then resuspended and permeabilised in 70% (vol/vol) ethanol/PBS solution at 4° C. for at least 24 hours. The cells were washed with PBS and the DNA was stained with a PBS solution, containing 20 μg/ml of propidium iodide and 100 μg/ml of RNAse, at room temperature for 30 minutes. Cells were analysed by FACScan (Becton-Dickinson) and the content of DNA was evaluated by the Cell-LISYS program (Becton-Dickinson). Cell distribution among cell cycle phases and apoptotic cells was evaluated as previously described (Secchiero et al., 2001). Briefly, the cell cycle distribution is shown as the percentage of cells containing 2n (G1 phase), 4n (G2 and M phases), 4n>x>2n. DNA amount (S phase) judged by propidium iodide staining. The apoptotic population is the percentage of cells with DNA content lower than 2n.
Cell proliferation and apoptosis are quantified by flow cytometer analysis after propidium-iodide (PI) DNA staining.

[5] = molecular target: T2, P-gp drug efflux activity in HeL023 cells (Homo sapiens, UniProt P08183); test: Rhodamine 123 efflux assay, HeL023 cells; format: cell-based; details: Rh123 efflux, concentrations of Table 11 (MRE3008F20 10 μM)
T2 construct: nearly all (100±1%) the cells expressing high level of functional P-gp; endogenous in cells; host or cells: HeL023 human erythroleukemia cells
T2 sequence (P08183 whole entry): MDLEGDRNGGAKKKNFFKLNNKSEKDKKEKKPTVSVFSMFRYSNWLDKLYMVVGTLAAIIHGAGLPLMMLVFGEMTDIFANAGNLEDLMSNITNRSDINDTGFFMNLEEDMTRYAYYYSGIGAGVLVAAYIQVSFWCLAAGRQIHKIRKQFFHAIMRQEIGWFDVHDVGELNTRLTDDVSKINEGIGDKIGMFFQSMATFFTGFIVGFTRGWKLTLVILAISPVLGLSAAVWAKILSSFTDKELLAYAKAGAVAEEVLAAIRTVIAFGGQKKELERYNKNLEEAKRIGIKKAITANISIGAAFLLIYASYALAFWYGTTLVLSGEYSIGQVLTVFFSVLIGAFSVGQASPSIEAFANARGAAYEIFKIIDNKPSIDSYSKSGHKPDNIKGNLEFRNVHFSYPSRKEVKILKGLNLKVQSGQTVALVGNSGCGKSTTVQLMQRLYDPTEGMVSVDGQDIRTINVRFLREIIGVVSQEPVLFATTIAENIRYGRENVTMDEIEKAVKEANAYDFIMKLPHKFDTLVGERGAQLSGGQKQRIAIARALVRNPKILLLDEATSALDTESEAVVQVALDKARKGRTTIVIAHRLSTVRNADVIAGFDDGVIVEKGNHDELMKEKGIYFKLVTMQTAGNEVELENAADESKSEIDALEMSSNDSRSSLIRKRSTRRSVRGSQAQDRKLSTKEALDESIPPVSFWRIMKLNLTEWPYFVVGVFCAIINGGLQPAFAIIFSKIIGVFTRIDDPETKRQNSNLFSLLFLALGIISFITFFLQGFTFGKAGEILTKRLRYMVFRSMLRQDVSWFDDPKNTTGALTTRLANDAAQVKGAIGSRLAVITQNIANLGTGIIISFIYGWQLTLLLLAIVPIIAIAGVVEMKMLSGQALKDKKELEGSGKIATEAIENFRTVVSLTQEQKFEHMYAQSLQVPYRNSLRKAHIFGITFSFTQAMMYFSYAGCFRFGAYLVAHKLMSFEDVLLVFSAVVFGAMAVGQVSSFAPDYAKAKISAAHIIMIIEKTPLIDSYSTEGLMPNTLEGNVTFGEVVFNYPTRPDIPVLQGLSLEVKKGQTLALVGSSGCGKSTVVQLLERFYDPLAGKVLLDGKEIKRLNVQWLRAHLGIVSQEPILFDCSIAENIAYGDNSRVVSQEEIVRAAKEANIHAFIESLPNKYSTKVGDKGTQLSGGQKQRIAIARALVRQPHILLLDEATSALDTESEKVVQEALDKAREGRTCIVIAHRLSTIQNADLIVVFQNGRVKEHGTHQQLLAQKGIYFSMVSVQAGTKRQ
Description: 5×10^5 cells from each subline were loaded with 50 ng/ml of rhodamine 123 for 30 minutes at 37° C. in medium. The cells were washed and resuspended in dye-staining agent free medium for 3 hours at 37° C. to allow rhodamine 123 efflux. The cells were then washed twice and the fluorescence of intracellular rhodamine 123 were analysed with Flow cytometer (residual fluorescence FRES). The fluorescence was compared with loaded cells maintained at 4° C. to prevent drug export (maximal fluorescence FMAX). […] Cells from each subline that were not being exposed to rhodamine 123 were used as negative controls.
Rhodamine 123 (Rh123) retention, a P-gp functional assay, was studied in all cell lines. This assay was performed by incubating cells with Rh123 and determining Rh123 accumulation by measuring its fluorescence. The maximum load of Rh123 (FMAX) was quantified at the end of treatment harvesting the cells and storing them at 4° C. to prevent any active Rh123 efflux . The P-gp drug efflux was allowed incubating Rh123-loaded cells in fresh new medium Rh123-free for 3 hours at 37° C. After this incubation, residual fluorescence (FRES) was measured and compared to FMAX.

[6] = molecular target: T3, human A3 adenosine receptor (Homo sapiens, UniProt P0DMS8); details: read-out: Ki (binding affinity at human A3 adenosine receptor); A375 cells
T3 sequence (P0DMS8 1-318): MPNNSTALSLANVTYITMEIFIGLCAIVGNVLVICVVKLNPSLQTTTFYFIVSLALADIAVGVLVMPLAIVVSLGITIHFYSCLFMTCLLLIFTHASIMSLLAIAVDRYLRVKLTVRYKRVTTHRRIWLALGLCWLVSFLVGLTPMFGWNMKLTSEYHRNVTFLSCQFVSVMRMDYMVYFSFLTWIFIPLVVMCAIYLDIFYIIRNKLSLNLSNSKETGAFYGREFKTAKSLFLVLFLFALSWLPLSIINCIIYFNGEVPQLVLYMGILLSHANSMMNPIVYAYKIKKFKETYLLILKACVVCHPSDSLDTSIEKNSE

[7] = Panc-1, A3 antagonist 0.5 μg/ml

CCN(CC)c1ccc(NC(=O)Nc2nc3nn(C)cc3c3nc(-c4ccco4)nn23)cc1 [IL-10, N-1-(4-diethylamino-phenyl)-N′-5-[8-methyl-2-(2-furyl)-pyrazolo[4 ,3-e]1,2,4-triazolo[1,5-c]pyrimidine]-urea]
Ki (rA1 adenosine receptor): 580 nM | Ki (rA2A adenosine receptor): 523 nM | Enhancement Factor for docetaxel ([1]; A375, A3 antagonist 0.5 μg/ml): 8.4 | Enhancement Factor for paclitaxel ([1]; A375, A3 antagonist 0.5 μg/ml): 3.7 | Enhancement Factor for docetaxel ([1]; A375, A3 antagonist 5 μg/ml): 2.9 | Enhancement Factor for paclitaxel ([1]; A375, A3 antagonist 5 μg/ml, paclitaxel 0.0001-0.05 μg/ml): 8.8 | Enhancement Factor for paclitaxel ([1]; A375, A3 antagonist 5 μg/ml, paclitaxel 0.0002-0.1 μg/ml): 9.2 | IC50 ([1]; Homo sapiens, A-375, Human Melanoma A375, read-out: IC50 growth inhibition, agent used separately): 11.9 ± 0.4 µg/mL (≈ 26.7 µM) | inhibition at 5 µg/mL ([1]; Homo sapiens, A-375, A375, 5 μg/ml, read-out: growth inhibition in the presence of A3 antagonist alone): 30 to 45% | Enhancement Factor for docetaxel ([2]; HT29, A3 antagonist 0.5 μg/ml): 5.5 | Enhancement Factor for doxorubicin ([2]; HT29, A3 antagonist 0.5 μg/ml): 1.5 | Enhancement Factor for irinotecan HCl ([2]; HT29, A3 antagonist 0.5 μg/ml): 1.2 | Enhancement Factor for paclitaxel ([2]; HT29, A3 antagonist 0.5 μg/ml): 2.5 | IC50 ([2]; HT-29, Human Colon Carcinoma HT29, read-out: IC50 growth inhibition, agent used separately): 10 ± 0.7 µg/mL (≈ 22.4 µM) | IC50 ([3]; Human Pancreatic Cancer Panc-1, read-out: IC50 growth inhibition, agent used separately): 3.9 ± 3.3 µg/mL (≈ 8.75 µM) | Enhancement Factor for docetaxel [3, 7]: 1.4 | Enhancement Factor for paclitaxel [3, 7]: 1.7 | IC50 ([4]; Human Lung Carcinoma SKMES, read-out: IC50 growth inhibition, agent used separately): 5.9 ± 0.3 µg/mL (≈ 13.2 µM) | Enhancement Factor for docetaxel ([4]; SKMES, A3 antagonist 0.5 μg/ml): 2.8 | Enhancement Factor for irinotecan HCL ([4]; SKMES, A3 antagonist 0.5 μg/ml): 1.7 | Enhancement Factor for paclitaxel ([4]; SKMES, A3 antagonist 0.5 μg/ml): 2.8 | Enhancement Factor for vinblastine ([4]; SKMES, A3 antagonist 0.5 μg/ml): 1.4 | EC50 (A375 cells; Homo sapiens, A-375): 970 ± 100 nM | inhibition of P-gp activity (in words) [5]: strong inhibitors of P-gp activity

CCCCn1cc2c(nc(NC(=O)Nc3ccccc3)n3nc(-c4ccco4)nc23)n1 [MRE 3062F20, 5-N-(4-phenyl-carbamoyl)amino-8-butyl-2 (2furyl)-pyrazolo-[4,3e]-1,2,4triazolo[1,5-c]pyrimidine]
EC50 (A375 cells): 430 ± 40 nM | inhibition of P-gp activity (in words) [5]: strong inhibitors of P-gp activity | Ki [6]: 2.3 ± 0.2 nM
